Data: ChEMBL document CHEMBL3297726, “Isolation and structure elucidation of cystargamide, a lipopeptide from Kitasatospora cystarginea” (J Nat Prod, 2014)
Activity calls are given as the source filed them. Positions of bridges follow the written chain, without caps; N, C: chain ends. Non-standard residues stand in square brackets, D forms with d. Residues, ends and D or L forms follow the SMILES beside them. *: point of attachment. Trp(5-OH) = N[C@@H](Cc1c[nH]c2ccc(O)cc12)C(=O)O; Hpg = N[C@H](C(=O)O)c1ccc(O)cc1; X1 = CCCCCCCC1OC1C(=O)*

Experiments:
Type in all cases: functional, organism-based
Staphylococcus warneri = experiment: Antimicrobial activity against Staphylococcus warneri ATCC 17917 assessed as growth inhibition at 128 ug/ml
Candida albicans = experiment: Antimicrobial activity against Candida albicans ATCC 14035 assessed as growth inhibition at 128 ug/ml
Enterococcus faecium = experiment: Antimicrobial activity against vancomycin-resistant Enterococcus faecium EF379 assessed as growth inhibition at 128 ug/ml
Staphylococcus aureus = experiment: Antimicrobial activity against methicillin-resistant Staphylococcus aureus ATCC 33591 assessed as growth inhibition at 128 ug/ml

Measured: growth inhibition (GI)

CCCCCCCC1OC1C(=O)N[C@@H]1C(=O)N[C@@H](Cc2ccccc2)C(=O)N[C@@H](CCC(=O)O)C(=O)N[C@@H](Cc2c[nH]c3ccc(O)cc23)C(=O)N[C@@H](c2ccc(O)cc2)C(=O)NCC(=O)O[C@@H]1C (some centres undefined) (X1-TFE[Trp(5-OH)][Hpg]G; ester 1-C)
inactive: all assays above
